How the values were obtained:
[1] = tested on: malignant melanoma cells (SK-MEL-2 and MeWo); experiment: Viable cell counts, malignant cell lines taken together; type: cell-based; conditions: Homo sapiens; for IC50: from dose curves of cell proliferation, read-out: half maximal inhibitory concentration (IC50)
Description: Dose curves (inhibitor concentrations vs cell population after 3 days) for ICA-1, ACPD, DND and ζ-Stat were obtained for all 3 cell lines as follows. PCS-200-013, SK-MEL-2 and MeWo cells (4×10^4) were cultured in 25 cm^2 flasks and treated with either equal volume of sterile water (vehicle control). Cells were treated every 24 h during 3 day incubation period and cells were then lifted using Trypsin-EDTA solution (1.5 mL/flask) and neutralized with the equal volume of media. Subsequently, live cells were counted using the Scepter, an automated cell counter from Millipore (Billerica, Mass.). The cell growth inhibition for all inhibitors for the two malignant cell lines (SK-MEL-2 and MeWo) were quantified by counting the viable cells at 24 hour intervals. Cell counts obtained from Scepter was compared with the counts obtained from the Cellometer Vision from Nexcelom Bioscience (Lawrence, Mass.).
Dose curves for ACPD and DNDA were obtained to investigate the effect on cell proliferation of normal and malignant cell lines over a wide range of concentrations. […] ACPD decreased proliferation by 20% for 1.5 μM (p≤0.01), 48% for 2.5 μM (p≤0.01) and 51% for 3.5 μM (p≤0.001)(FIG. 5B). DNDA decreased by 17% for 500 nM (p≤0.01), 24% for 1.5 μM(p≤0.01), 52%) for 2.5 µM (p≤0.01) and 57 for 3.5 μM (p≤0.01)(FIG. 5C) in SK-MEL-2 cells. ACPD decreased proliferation by 28% for 500 nM (p≤0.01), 41% for 1.5 μM (p≤0.01), 54% for 2.5 µM (p≤0. 01) and 58% for 3.5 μM (p≤0.01) (FIG. 5D). DNDA decreased proliferation by 37% for 500 nM (p≤0.01), 41% for 1.5 μM (p≤0.01), 46% for 2.5 μM (p≤0.01) and 48% for 3.5 μM (p≤0.01) (FIG. 5E) in the MeWo cells.
To test the effects of ζ-Stat on malignant cells approximately 4×10^4 of cells were cultured in 25 cm2 flasks and treated with either equal volume of sterile water (control) or ζ-Stat (0.1-10 μM). Additional doses of sterile water or inhibitor were supplied every 24 h during 3 day incubation period. Subsequently, cells were lifted and counted. Cells were quantified by counting the viable cells at 24 hour intervals. […] N=3 experiments were performed for each cell line and mean±SD are plotted.

MeWo cells = experiment: Western blot of protein levels; type: cell-based, human; set-up: concentration or dose not given beside the values; conditions: vs respective control
Description: Approximately 2×10^5 cells from PCS-200-013 and SK-MEL-2 cell lines were plated in T25 flasks until they become 70% confluent. Confluent cells were semi-synchronized by contact inhibition and serum starvation for 48 hrs. Subsequently, cells were incubated with serum and atypical inhibitors. The cells were removed at specific times and were placed in ice to terminate the incubation. Cells were washed at least two times with ice cold DPBS. Cells were then scrapped, re-suspended and sonicated in 500 μL of homogenization buffer (50 mM HEPES—pH 7.5), 150 mM NaCl, 0.1% Triton X, 1 mM EDTA (ethylenediaminetetraacetic acid), 2 mM EGTA [glycol-bis (2-aminoethylether)-N, N, N′,N′-tetraacetic acid], 0.1 mM orthovanadate, 1 mM NaF, 2 mM PMSF (phenylmethylsulphonylfluoride), 1 mM DTT (dithiothreitol) and 0.15 U/mL aprotinin. Cell suspensions was then sonicated and centrifuged at 100,000 g for 30 minutes. The protein concentrations was determined using Bradford method. Subsequently, approximately 800 μg of proteins were immunoprecipitated with the antibody against desired protein. In some cases cell lysates were suspended with anti-HFS-1 antibody, rocking overnight at 4° C. Agarose beds were added after 24 hrs. Then the complex of cell lysate-anti HSF-1 antibody-agarose beads was rocked at 4° C. for 2 hrs. After washing the beads, approximately […] the sample loading buffer was added to dissolve all the protein on the beads. Proteins were then separated on sodium dodecyl sulfate polyacrylamide gel electrophoresis (SDS-PAGE) and transblotted followed by immunoblotting with anti-PKC-ζ or anti-PKC-ι or anti-HSF-1 antibody or phosphospecific antibodies. Immunoreactive bands were visualized with enhanced chemiluminescence.
Western blots (WB) were performed to investigate the effect of ACPD and DNDA on the expression of aPKCs on malignant melanoma. […] DNDA decreased the levels of PKC-ι by 52%, pPKC-ι by 33% in SK-MEL-2 cells and by 27% of PKC-ι and pPKC-ι by 20% in MeWo cells.
DNDA reduced the levels of PKC-ζ by 33%, pPKC-ζ by only 17% in SK-MEL-2 cells and by 60% of PKC-ζ and pPKC-ζ by 29% in MeWo cells. All values (percent) were calculated compared to their respective control in Western blot. B-actin was used as the internal control to ensure that equal amounts of proteins were loaded in each lane in SDS-PAGE.

Row | Structure (SMILES) | IC50 [1] [nM] | reduction of PKC-ζ level (MeWo cells) [%] | reduction of PKC-ι level (MeWo cells) [%] | reduction of pPKC-ζ level (MeWo cells) [%] | reduction of pPKC-ι level (MeWo cells) [%] | cytotoxicity at 2.5 µM ([1]; 2.5 μM, read-out: inhibition of cell viability according to cell counts) [%] | cytotoxicity at 5 µM ([1]; 5 μM, read-out: inhibition of cell viability according to cell counts) [%] | cytotoxicity at 10 µM ([1]; 10 μM, read-out: inhibition of cell viability according to cell counts) [%]
1 | CC(=O)C1=C(O)CCC1=O [ACPD, 2-acetyl-1,3-cyclopentanedione] | ~2500 | 42 | 46 | 23 | 26 | – | – | –
2 | Nc1c(S(=O)(=O)O)cc2cc(S(=O)(=O)O)ccc2c1N [DNDA, 3,4-diamino-2,7-naphthalenedisulfonic acid] | ~2500 | 60 | 27 | 29 | 20 | – | – | –
3 | O=S(=O)(O)c1cc(O)c2c(S(=O)(=O)O)cc(S(=O)(=O)O)cc2c1 [ζ-Stat, 8-hydroxy-1,3,6-naphthalenetrisulfonic acid] | – | – | – | – | – | 20 to 25 | ~50 | ~50
